Laboratory results from PubChem BioAssay (NCI).
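Results reflect a 48-hour exposure of cells in 96-well plates to compound at five concentrations. Abbreviation: GI50, concentration required for 50% inhibition of growth. TGI denotes the concentration required for complete inhibition of growth.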

Legend:
Assay in all cases: NCI tumour cell line growth inhibition, 48 h
[1] = test system: T-47D breast
[2] = test system: MCF7 breast
[3] = test system: RPMI-8226 leukemia
[4] = test system: NCI-H522 lung
[5] = test system: HOP-62 NSCLC
[6] = test system: HCT-15 colon
[7] = test system: DU-145 prostate
[8] = test system: A549 NSCLC
[9] = test system: MDA-MB-231 breast
[10] = test system: UACC-257 melanoma

Row | Structure (SMILES) | GI50 [1] | TGI [1] | GI50 [2] | TGI [2] | GI50 [3] | TGI [3] | GI50 [4] | TGI [4] | GI50 [5] | TGI [5] | GI50 [6] | TGI [6] | GI50 [7] | TGI [7] | GI50 [8] | TGI [8] | GI50 [9] | TGI [9] | GI50 [10] | TGI [10]
1 | Nc1ccccc1C#C/C=C\C#Cc1ccc(F)cc1F | 26 µM | > 100 µM | 6.28 µM | 38.5 µM | 1.36 µM | 34.3 µM | 13.8 µM | 35.2 µM | 16 µM | 30 µM | 14.1 µM | 31.7 µM | 12.5 µM | 33.8 µM | 16.8 µM | 67.7 µM | 15.1 µM | 33.3 µM | 19.5 µM | 50 µM
2 | COc1cc(-c2c3c(cn2S(=O)(=O)c2ccccc2)-c2nc(N)sc2CC3)cc(OC)c1OC | 0.433 µM | 20.6 µM | 0.381 µM | 21.4 µM | 0.79 µM | 56 µM | 0.349 µM | 6.83 µM | 2.05 µM | 63.2 µM | 0.432 µM | 27.2 µM | 1.54 µM | 41.9 µM | 0.58 µM | 17.1 µM | 1.1 µM | 79.1 µM | 10.3 µM | 60.1 µM
3 | C=CC1CC12C(=O)C1OC2(C)C2C(=O)c3ccccc3C(=O)C12 (stereo not given) | 51.4 µM | > 100 µM | 42.9 µM | > 76.1 µM | 28.2 µM | 99.2 µM | > 61.7 µM | > 100 µM | > 68 µM | > 100 µM | 41.9 µM | > 100 µM | 72.7 µM | > 100 µM | > 60 µM | > 100 µM | 24.8 µM | > 100 µM | > 45.9 µM | > 81.7 µM
4 | COc1ccc2c(c1)Oc1nc(N)c(C#N)c(N)c1C2Sc1ccc(SC)cc1 (stereo not given) | 1.94 µM | 4.91 µM | 1.83 µM | 4.5 µM | 2.86 µM | 6.43 µM | 1.65 µM | 3.08 µM | 1.83 µM | 3.49 µM | 1.58 µM | 3.33 µM | 1.79 µM | 3.19 µM | 2 µM | 3.91 µM | 1.85 µM | 3.38 µM | 1.9 µM | 3.38 µM
5 | CC1OCC2OC(C)OC(C3C4=C(CC(C)(C)CC4=O)OC4=C3C(=O)CC(C)(C)C4)C2O1 (stereo not given) | – | > 100 µM | – | > 100 µM | – | > 100 µM | – | > 100 µM | – | > 100 µM | – | > 100 µM | – | > 100 µM | – | > 100 µM | – | > 100 µM | – | > 100 µM
6 | c1ccc2c(c1)O[As](O[As]1Oc3ccccc3O1)O2 | 1.69 µM | 14.6 µM | 1.86 µM | 13.2 µM | 1.07 µM | 4.61 µM | 0.548 µM | 2.06 µM | 3.62 µM | 14.2 µM | 2.33 µM | 17 µM | 3.96 µM | 15.2 µM | 12 µM | 47.8 µM | 2.11 µM | 10.7 µM | 2.07 µM | 9.88 µM
7 | CCCOC(=O)N[C@H]1CCc2c(Br)c(OC)c(OC)c(OC)c2-c2ccc(SC)c(=O)cc21 | 14.1 µM | > 100 µM | < 0.01 µM | 12.2 µM | 0.0259 µM | 10.4 µM | < 0.0119 µM | 0.558 µM | 0.0633 µM | > 100 µM | 0.0218 µM | > 36 µM | 0.0305 µM | 0.234 µM | 0.0395 µM | > 68.4 µM | 0.0359 µM | 6.45 µM | 5.02 µM | 32.6 µM
8 | Cc1ccc(S(=O)(=O)N(C)C)cc1[N+](=O)[O-] | > 100 µM | > 100 µM | > 100 µM | > 100 µM | > 100 µM | > 100 µM | > 100 µM | > 100 µM | > 100 µM | > 100 µM | > 100 µM | > 100 µM | > 100 µM | > 100 µM | > 100 µM | > 100 µM | > 100 µM | > 100 µM | > 100 µM | > 100 µM
9 | CCCC[C@@H]1NC(=O)[C@H](CCCCN)NC(=O)[C@H](CCCNC(=N)N)NC(=O)[C@H](CC(C)C)NC(=O)[C@@H](NC(=O)[C@H](Cc2cccc(Cl)c2)NC(=O)[C@@H]2CCCN2C(=O)[C@@H](NC(C)=O)C(C)C)CCSSC[C@@H](C(=O)N[C@@H](CCCCN)C(=O)N2CCC[C@H]2C(=O)N2CCC[C@H]2C(=O)N[C@@H](CCC(=O)O)C(N)=O)NC(=O)[C@H](Cc2ccccc2)NC(=O)[C@H](CO)NC(=O)[C@H](C)NC(=O)[C@@H]2CCCN2C1=O | > 50 µM | > 50 µM | > 50 µM | > 50 µM | > 50 µM | > 50 µM | > 50 µM | > 50 µM | > 50 µM | > 50 µM | > 50 µM | > 50 µM | > 50 µM | > 50 µM | > 50 µM | > 50 µM | > 50 µM | > 50 µM | > 50 µM | > 50 µM
10 | COc1cc(OC)c(-c2cc(=O)c3c(OC)c(OC)c(OC)c(OC)c3o2)cc1OC | – | > 100 µM | – | > 100 µM | – | > 100 µM | – | > 100 µM | – | > 100 µM | – | > 100 µM | – | > 100 µM | – | > 100 µM | – | > 100 µM | – | > 100 µM
11 | Cn1ncc2c(Nc3ccc(Br)cc3)nc(Nc3ccc(Br)cc3)nc21 | 2.7 µM | 14.6 µM | 2.61 µM | 10.9 µM | 2.4 µM | 8.87 µM | 3.44 µM | 15.7 µM | 4.22 µM | 15.4 µM | 2.2 µM | 5.62 µM | 3.65 µM | 13 µM | 4.46 µM | 30.8 µM | 1.8 µM | 3.68 µM | 5.32 µM | 18.8 µM
12 | Cc1c(Cl)ccc2c1NC(=O)C2(O)CC(=O)c1ccc(Cl)cc1Cl (stereo not given) | – | > 50 µM | – | > 50 µM | – | > 50 µM | – | > 50 µM | – | > 50 µM | – | > 50 µM | – | > 50 µM | – | > 50 µM | – | > 50 µM | – | > 50 µM
13 | O=C(CC12CC3CC(CC(C3)C1)C2)NCCOCCOCCNC(=O)c1cc2c(o1)C(=O)c1ccccc1C2=O | 1.8 µM | 5.06 µM | 0.54 µM | 2.38 µM | 1.56 µM | 4.43 µM | 1.34 µM | 3.04 µM | 1.52 µM | 2.86 µM | 0.867 µM | 2.39 µM | 0.225 µM | 0.457 µM | 0.22 µM | 0.51 µM | 1.53 µM | 5.68 µM | 1.14 µM | 2.43 µM
